Molecules are shown by their SMILES. Where a name gives a salt, the structure may show the parent alone.

The subject of the first experiment is Acinetobacter baumannii ATCC 17978. The experiment is described as follows: Antimicrobial susceptibility testing: 90% growth inhibitory concentration (IC90) determination. The format is cell-based. The settings on record: 90% growth inhibitory concentration; Acinetobacter baumannii ATCC17978; Iso-Sensitest broth, OD 600 nm over 16h; read-out: ATCC17978 IC90. On the procedure: Antimicrobial Susceptibility Testing:
90% Growth Inhibitory Concentration (IC90) Determination
The in vitro antimicrobial activity of the compounds was determined according to the following procedure:
The assay used a 10-points Iso-Sensitest broth medium to measure quantitatively the in vitro activity of the compounds against Acinetobacter baumannii ATCC 17978 and Acinetobacter baumannii ATCC 17961.
Stock compounds in DMSO were serially twofold diluted (e.g. range from 50 to 0.097 μM final concentration) in 384 wells microtiter plates and inoculated with 49 μl the bacterial suspension in Iso-Sensitest medium to have a final cell concentration of ˜5×10^(5) CFU/ml in a final volume/well of 50 ul/well. Microtiter plates were incubated at 35±2° C.
Bacterial cell growth was determined with the measurement of optical density at λ=600 nm each 20 minutes over a time course of 16h. Growth inhibition was calculated during the logarithmic growth of the bacterial cells with determination of the concentration inhibiting 50% (IC50) and 90% (IC90) of the growth.
Table 1 provides the 90% growth inhibitory concentrations (IC90) in micromoles per liter of the compounds of present invention obtained against the strain Acinetobacter baumannii ATCC17978 and Acinetobacter baumannii ATCC17961.
Regarding `COc1ccc(-c2cnc3c(Nc4ccc(C(=O)N(C)CCCC(=O)N5CCNCC5)c(C)c4)nccn23)cc1F` [Example 4, 4-[[3-(3-fluoro-4-methoxy-phenyl)imidazo[1,2-a]pyrazin-8-yl]amino]-N,2-dimethyl-N-(4-oxo-4-piperazin-1-yl-butyl)benzamide], the IC90 (usually the point of the concentration-response curve where the effect stands at 90%) came out at 290 nM. Still for that read-out and setting: for `COc1ccc(-c2cnc3c(Nc4ccc(C(=O)N(C)CC(=O)N5CCNCC5)c(C)c4)nccn23)cc1F` [Example 5, hydrochloride] the value was 650 nM; for `COc1ccc(-c2cnc3c(Nc4ccc(C(=O)N(C)CC5CCOCC5)c(C)c4)nccn23)cc1F` [Example 35, 4-[[3-(3-fluoro-4-methoxy-phenyl)imidazo[1,2-a]pyrazin-8-yl]amino]-N,2-dimethyl-N-(tetrahydropyran-4-ylmethyl)benzamide; 2,2,2-trifluoroacetic acid], 1200 nM.

The same experiment, now with this note: Acinetobacter baumannii, ATCC17978, 16 h, 90% growth inhibitory concentration; Acinetobacter baumannii ATCC17978; Iso-Sensitest broth, OD 600 nm over 16h; read-out: ATCC17978 IC90.
Turning to `COc1ccc(-c2cnc3c(Nc4ccc(C(=O)N(C)CCC(=O)N5CCNCC5)c(C)c4)nccn23)cc1F` [Example 3, 4-[[3-(3-fluoro-4-methoxy-phenyl)imidazo[1,2-a]pyrazin-8-yl]amino]-N,2-dimethyl-N-(3-oxo-3-piperazin-1-yl-propyl)benzamide], the 90% effect concentration (IC90) worked out at 210 nM. Still for that read-out and setting: under `COc1ccc(-c2cnc3c(Nc4ccc(C(=O)N(C)CC(=O)N5CCNC(=O)C5)c(C)c4)nccn23)cc1F` [Example 6] stands 640 nM. On the same count and under the same terms, for `COc1ccc(-c2cnc3c(Nc4ccc(C(=O)N(C)CC(=O)N(C)C)c(C)c4)nccn23)cc1F` [Example 7, N-[2-(dimethylamino)-2-oxo-ethyl]-4-[[3-(3-fluoro-4-methoxy-phenyl)imidazo[1,2-a]pyrazin-8-yl]amino]-N,2-dimethyl-benzamide] the value was 1900 nM; for `COc1ccc(-c2cnc3c(Nc4ccc(C(=O)N(C)CC(=O)N5CCOCC5)c(C)c4)nccn23)cc1F` [Example 8, 4-[[3-(3-fluoro-4-methoxy-phenyl)imidazo[1,2-a]pyrazin-8-yl]amino]-N,2-dimethyl-N-(2-morpholino-2-oxo-ethyl)benzamide], 2000 nM.

As to `COc1ccc(-c2cnc3c(Nc4ccc(C(=O)N(C)CC(=O)N5CCC(CN(C)C)C5)c(C)c4)nccn23)cc1F` (stereo not shown) [Example 9, N-[2-[3-[(dimethylamino)methyl]pyrrolidin-1-yl]-2-oxo-ethyl]-4-[[3-(3-fluoro-4-methoxy-phenyl)imidazo[1,2-a]pyrazin-8-yl]amino]-N,2-dimethyl-benzamide], the IC90 amounted to 840 nM. The same measure, in the same setting: under `COc1ccc(-c2cnc3c(Nc4ccc(C(=O)NCCCCCCN)c(C)c4)nccn23)cc1` [Example 10, N-(6-aminohexyl)-4-((3-(4-methoxyphenyl)imidazo [1,2-a]pyrazin-8-yl)amino)-2-methylbenzamide hydrochloride] stands 110 nM; under `COc1ccc(-c2cnc3c(Nc4ccc(C(=O)N(C)CCC5CCNCC5)c(C)c4)nccn23)cc1F` [Example 11, hydrochloride], 140 nM; under `COc1ccc(-c2cnc3c(Nc4ccc(C(=O)N(C)C)c(C)c4)nccn23)cc1` [Example 13, 4-((3-(4-methoxyphenyl)imidazo [1,2-a]pyrazin-8-yl)amino)-N,N,2-trimethylbenzamide], 240 nM.

For `CNC(=O)c1ccc(Nc2nccn3c(-c4ccc(OC)cc4)cnc23)cc1C` [Example 14, 4-((3-(4-methoxyphenyl)imidazo [1,2-a]pyrazin-8-yl)amino)-N,2-dimethylbenzamide], the 90% effect concentration (IC90) turned out to be 120 nM. The same measure, in the same setting: under `COc1ccc(-c2cnc3c(Nc4ccc(C(=N)OCC(=N)N(C)C)c(C)c4)nccn23)cc1` [Example 16] stands 810 nM. Take `COc1ccc(-c2cnc3c(Nc4ccc(C(=N)NCC(N)=O)c(C)c4)nccn23)cc1` [Example 17]: the concentration for an effect of 90% (IC90) was found to be 550 nM. Take `COc1ccc(-c2cnc3c(Nc4ccc(C(=O)N(C)CCN(C)C)c(C)c4)nccn23)cc1` [Example 18, N-(2-(dimethylamino)ethyl)-4-((3-(4-methoxyphenyl)imidazo [1,2-a]pyrazin-8-yl)amino)-N,2-dimethylbenzamide]: the IC90 came out at 2200 nM.

Take `COc1ccc(-c2cnc3c(Nc4ccc(C(=O)N(C)CCO)c(C)c4)nccn23)cc1` [Example 19, N-(2-hydroxyethyl)-4-((3-(4-methoxyphenyl)imidazo [1,2-a]pyrazin-8-yl)amino)-N,2-dimethylbenzamide]: the concentration for an effect of 90% (IC90) stood at 690 nM.

As for `COc1ccc(-c2cnc3c(Nc4ccc(C(=O)NCC(=O)N5CCC(O)CC5)c(C)c4)nccn23)cc1` [Example 20, N-(2-(4-hydroxypiperidin-1-yl)-2-oxoethyl)-4-((3-(4-methoxyphenyl)imidazo [1,2-a]pyrazin-8-yl)amino)-2-methylbenzamide], the IC90 amounted to 650 nM. Same read-out and setting: for `Cc1cc(Nc2nccn3c(-c4ccc(OC(F)F)cc4)cnc23)ccc1C(=O)NCCCCCCN` [Example 21, N-(6-aminohexyl)-4-((3-(4-(difluoromethoxy)phenyl)imidazo[1,2-a]pyrazin-8-yl)amino)-2-methylbenzamide hydrochloride] the value was 120 nM. Still for that read-out and setting: for `CNC(=O)c1ccc(Nc2nccn3c(-c4ccc(OC)c(F)c4)cnc23)cc1Cl` [Example 22, 2-chloro-4-((3-(3-fluoro-4-methoxyphenyl)imidazo [1,2-a]pyrazin-8-yl)amino)-N-methylbenzamide] the value was 130 nM; for `CN(CCC1CCNCC1)C(=O)c1ccc(Nc2nccn3c(-c4ccc(OC(F)F)cc4)cnc23)cc1Cl` [Example 23, 2-chloro-4-((3-(4-(difluoromethoxy)phenyl)imidazo[1,2-a]pyrazin-8-yl)amino)-N-methyl-N-(2-(piperidin-4-yl)ethyl)benzamide hydrochloride], 150 nM.

Regarding `Cc1cc(Nc2nccn3c(-c4ccc(OC(F)F)cc4)cnc23)ccc1C(=O)NCC1CCN(C(=N)N)CC1` [Example 24, N-((1-carbamimidoyl-piperidin-4-yl)methyl)-4-((3-(4-(difluoromethoxy)phenyl)imidazo[1,2-a]pyrazin-8-yl)amino)-2-methylbenzamide], the IC90 is 340 nM. The same measure, in the same setting: under `Cc1cc(Nc2nccn3c(-c4ccc(OC(F)F)cc4)cnc23)ccc1C(=O)NCCCCCN1CCOCC1` [Example 25, 4-((3-(4-(difluoromethoxy)phenyl)imidazo[1,2-a]pyrazin-8-yl)amino)-2-methyl-N-(5-morpholinopentyl) benzamide] stands 160 nM; under `CNC(=O)c1ccc(Nc2nccn3c(-c4ccc(OC(F)F)cc4)cnc23)cc1C` [Example 26], 170 nM. For the molecule `CNC(=O)c1ccc(Nc2nccn3c(-c4ccc(OC)c(Cl)c4)cnc23)cc1C` [Example 27, 4-((3-(3-chloro-4-methoxyphenyl)imidazo [1,2-a]pyrazin-8-yl)amino)-N,2-dimethylbenzamide], the IC90 came out at 190 nM. As to `COc1ccc(-c2cnc3c(Nc4ccc(C(=O)N(C)CCN(C)C)cc4)nccn23)cc1Cl` [Example 28, 4-((3-(3-chloro-4-methoxyphenyl)imidazo [1,2-a]pyrazin-8-yl)amino)-N-(2-(dimethylamino)ethyl)-N-methylbenzamide], the IC90 stood at 3600 nM. Consider `COc1ccc(-c2cnc3c(Nc4ccc(C(=O)NCCN5CCNCC5)cc4)nccn23)cc1Cl` [Example 30, 4-((3-(3-chloro-4-methoxyphenyl)imidazo [1,2-a]pyrazin-8-yl)amino)-N-(2-(piperazin-1-yl)ethyl)benzamide hydrochloride], for which the IC90 was 3700 nM. For `COc1ccc(-c2cnc3c(Nc4ccc(C(=O)NCCN)c(C)c4)nccn23)cc1` [Example 31, N-(2-aminoethyl)-4-((3-(4-methoxyphenyl)imidazo [1,2-a]pyrazin-8-yl)amino)-2-methylbenzamide], the IC90 was 2900 nM.

Turning to `COc1ccc(-c2cnc3c(Nc4ccc(C(=O)N(C)CCN)c(C)c4)nccn23)cc1` [Example 32, N-(2-aminoethyl)-4-((3-(4-methoxyphenyl)imidazo [1,2-a]pyrazin-8-yl)amino)-N,2-dimethylbenzamide], the IC90 was determined as 1700 nM. Still for that read-out and setting: for `COc1ccc(-c2cnc3c(Nc4ccc(C(=O)N(C)CCCN)cc4)nccn23)cc1` [Example 33, N-(3-aminopropyl)-4-((3-(4-methoxyphenyl)imidazo [1,2-a]pyrazin-8-yl)amino)-N-methylbenzamide hydrochloride] the value was 4900 nM; for `COc1ccc(-c2cnc3c(Nc4ccc(C(=O)N(C)CCCN)c(C)c4)nccn23)cc1` [Example 34, N-(3-aminopropyl)-4-((3-(4-methoxyphenyl)imidazo [1,2-a]pyrazin-8-yl)amino)-N,2-dimethylbenzamide hydrochloride], 1100 nM; for `COc1ccc(-c2cnc3c(Nc4ccc(C(=O)NCCCN5CCS(=O)(=O)CC5)c(C)c4)nccn23)cc1F` [Example 36, N-[3-(1,1-dioxo-1,4-thiazinan-4-yl)propyl]-4-[[3-(3-fluoro-4-methoxy-phenyl)imidazo[1,2-a]pyrazin-8-yl]amino]-2-methyl-benzamide; 2,2,2-trifluoroacetic acid], 460 nM.

Values taken from patent publication US20230012368A1 (Hoffmann-La Roche Inc., priority 2018, published 2023).
